Results reported in article PMC8776995 (Frontiers in Chemistry, 2022).
Several values for one entry are separate records, joined by “and”; a condition that tells them apart may be missing. Equal entries are not always repeated. Where two headings read alike, the source gives them in different places.

Legend:
[1] = tested on: PC-9 xenograft; assay: In vivo antitumor activity, PC-9 xenograft in NSG mice; parameters: species or system mouse
Protocol: The mouse body mass was recorded as well.

[2] = tested on: H460 cells; assay: CCK-8 antiproliferation assay, H460; settings: for Inhibitory efficacy: H460 cells; for IC50: NCI-H460, 48 h
[3] = tested on: A549 cells; assay: CCK-8 antiproliferation assay, A549; settings: for Inhibitory efficacy: A549 cells
[4] = tested on: PC-9 cells; assay: CCK-8 antiproliferation assay, PC-9; settings: for IC50: PC-9, 48 h, read-out: IC50 (μM) PC-9; for inhibition at 4 µM: PC-9, read-out: Inhibitory efficacy, PC-9, 4uM, single repeats (Repeat 1-3), given as fraction; for Inhibitory efficacy: single repeats (Repeat 1-3), given as fraction
[5] = tested on: H1975 cells; assay: CCK-8 antiproliferation assay, H1975; settings: for Inhibitory efficacy: H1975 cells; for Inhibitory efficacy / inhibition at 2 µM / inhibition at 4 µM / inhibition at 8 µM / inhibition at 16 µM: given as fraction, Repeat 1-3; for IC50 / inhibition at 2 µM / inhibition at 4 µM / inhibition at 8 µM / inhibition at 16 µM: Homo sapiens; for IC50: NCI-H1975, 48 h; for inhibition at 2 µM / inhibition at 4 µM / inhibition at 8 µM / inhibition at 16 µM: NCI-H1975, read-out: Inhibitory efficacy, H1975 cells
[6] = biological target: wild-type EGFR (Homo sapiens, UniProt P00533); assay: EGFR kinase assay (ELISA); settings: for A450: raw ELISA absorbance
[7] = 1uM, given as fraction, Repeat 1-3
[8] = 2uM, given as fraction, Repeat 1-3
[9] = 4uM, given as fraction, Repeat 1-3
[10] = 8uM, given as fraction, Repeat 1-3
[11] = 16uM, given as fraction, Repeat 1-3
[12] = Homo sapiens, NCI-H460, read-out: Inhibitory efficacy, H460 cells, 2uM, given as fraction, Repeat 1-3

Chain of wild-type EGFR (P00533 25-1210): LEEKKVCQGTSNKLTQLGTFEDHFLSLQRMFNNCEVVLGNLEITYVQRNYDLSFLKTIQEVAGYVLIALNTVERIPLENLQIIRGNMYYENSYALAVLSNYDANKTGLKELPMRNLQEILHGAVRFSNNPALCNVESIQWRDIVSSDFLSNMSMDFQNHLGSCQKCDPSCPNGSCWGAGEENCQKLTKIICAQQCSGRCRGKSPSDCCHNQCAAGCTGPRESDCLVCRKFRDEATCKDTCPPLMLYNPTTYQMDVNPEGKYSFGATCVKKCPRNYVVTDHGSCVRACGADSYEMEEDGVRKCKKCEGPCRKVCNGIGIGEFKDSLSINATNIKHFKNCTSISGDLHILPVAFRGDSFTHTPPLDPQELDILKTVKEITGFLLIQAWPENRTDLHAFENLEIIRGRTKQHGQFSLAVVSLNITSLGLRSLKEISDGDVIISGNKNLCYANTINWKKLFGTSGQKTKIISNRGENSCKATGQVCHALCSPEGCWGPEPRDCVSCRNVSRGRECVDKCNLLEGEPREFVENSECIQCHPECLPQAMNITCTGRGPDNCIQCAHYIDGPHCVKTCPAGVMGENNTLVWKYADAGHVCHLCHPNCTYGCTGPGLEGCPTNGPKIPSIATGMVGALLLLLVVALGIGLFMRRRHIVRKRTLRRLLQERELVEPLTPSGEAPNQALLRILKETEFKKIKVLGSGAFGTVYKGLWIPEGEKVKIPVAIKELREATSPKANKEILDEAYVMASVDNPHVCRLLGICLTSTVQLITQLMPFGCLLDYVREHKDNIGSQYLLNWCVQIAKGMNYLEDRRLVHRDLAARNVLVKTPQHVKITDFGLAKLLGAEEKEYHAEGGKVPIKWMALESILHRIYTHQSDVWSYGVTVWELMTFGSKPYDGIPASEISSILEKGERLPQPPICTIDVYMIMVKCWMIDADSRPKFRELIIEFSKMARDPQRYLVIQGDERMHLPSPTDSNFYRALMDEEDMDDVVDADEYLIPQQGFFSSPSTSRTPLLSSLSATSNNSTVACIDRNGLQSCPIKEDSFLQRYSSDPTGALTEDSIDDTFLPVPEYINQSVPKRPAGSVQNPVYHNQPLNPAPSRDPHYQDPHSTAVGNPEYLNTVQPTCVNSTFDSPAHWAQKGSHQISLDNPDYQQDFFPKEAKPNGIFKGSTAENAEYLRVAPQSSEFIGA

Q: What does the source list for `C#Cc1cccc(Nc2ncnc3cc(OCCOC)c(OCCOC)cc23)c1` [Erlotinib, reference compound]?
A: tumor volume mean ([1]; Day13, group mean): 75.6221 mm3; tumor length ([1]; Day13, individual animals): 5.32 mm and 6.15 mm and 5.63 mm and 5.6 mm and 6.4 mm and 5.64 mm and 7.11 mm; tumor volume ([1]; Day13, individual animals): 68.645 mm3 and 111.069 mm3 and 86.3969 mm3 and 32.368 mm3 and 70.688 mm3 and 54.5952 mm3 and 105.592 mm3; tumor width ([1]; Day13, individual animals): 5.08 mm and 6.01 mm and 5.54 mm and 3.4 mm and 4.7 mm and 4.4 mm and 5.45 mm; tumor volume mean ([1]; Day15, group mean): 46.9389 mm3; tumor length ([1]; Day15, individual animals): 5.43 mm and 5.76 mm and 4.04 mm and 4.28 mm and 5.96 mm and 6.09 mm and 6.46 mm; tumor volume ([1]; Day15, individual animals): 23.7877 mm3 and 44.4813 mm3 and 30.5668 mm3 and 38.11 mm3 and 66.1086 mm3 and 70.1568 mm3 and 55.3609 mm3; tumor width ([1]; Day15, individual animals): 2.96 mm and 3.93 mm and 3.89 mm and 4.22 mm and 4.71 mm and 4.8 mm and 4.14 mm; tumor volume mean ([1]; Day17, group mean): 35.7998 mm3; tumor length ([1]; Day17, individual animals): 4.34 mm and 4.5 mm and 4.68 mm and 3.6 mm and 3.5 mm and 5.64 mm and 5.39 mm; tumor volume ([1]; Day17, individual animals): 40.4974 mm3 and 44.957 mm3 and 28.665 mm3 and 15.138 mm3 and 14.7175 mm3 and 67.7082 mm3 and 38.9158 mm3; tumor width ([1]; Day17, individual animals): 4.32 mm and 4.47 mm and 3.5 mm and 2.9 mm and 4.9 mm and 3.8 mm; tumor volume mean ([1]; Day19, group mean): 14.0038 mm3; tumor length ([1]; Day19, individual animals): 2.66 mm and 3.12 mm and 2.47 mm and 0 mm and 3.83 mm and 4.36 mm and 4.91 mm; tumor volume ([1]; Day19, individual animals): 8.246 mm3 and 6.24 mm3 and 5.446 mm3 and 0 mm3 and 21.1079 mm3 and 22.4629 mm3 and 34.5234 mm3; tumor width ([1]; Day19, individual animals): 2.49 mm and 2 mm and 2.1 mm and 0 mm and 3.32 mm and 3.21 mm and 3.75 mm; Inhibitory efficacy [2, 7]: 0.09689 and 0.1206; Inhibitory efficacy [2, 8]: 0.2063 and 0.1995; Inhibitory efficacy [2, 9]: 0.3477 and 0.3746; Inhibitory efficacy [2, 10]: 0.4407 and 0.5067; Inhibitory efficacy [2, 11]: 0.4651 and 0.4816; IC50 ([2]; Homo sapiens, read-out: IC50 (μM) H460): 13.3 ± 1.5 µM; inhibition at 1 µM ([2]; Homo sapiens, NCI-H460, read-out: Inhibitory efficacy, H460 cells, 1uM, given as fraction, Repeat 1-3): 6.64%; inhibition at 2 µM [2, 12]: 14.3%; inhibition at 4 µM ([2]; Homo sapiens, NCI-H460, read-out: Inhibitory efficacy, H460 cells, 4uM, given as fraction, Repeat 1-3): 30%; inhibition at 8 µM ([2]; Homo sapiens, NCI-H460, read-out: Inhibitory efficacy, H460 cells, 8uM, given as fraction, Repeat 1-3): 47.8%; inhibition at 16 µM ([2]; Homo sapiens, NCI-H460, read-out: Inhibitory efficacy, H460 cells, 16uM, given as fraction, Repeat 1-3): 47.2%; Inhibitory efficacy [3, 7]: 0.1312 and 0.1478; Inhibitory efficacy [3, 8]: 0.2342 and 0.2336; Inhibitory efficacy [3, 9]: 0.4482 and 0.3384; Inhibitory efficacy [3, 10]: 0.471 and 0.4975; Inhibitory efficacy [3, 11]: 0.5265 and 0.5389; inhibition at 1 µM ([3]; Homo sapiens, A549, read-out: Inhibitory efficacy, A549 cells, 1uM, given as fraction, Repeat 1-3): 22.3%; inhibition at 2 µM ([3]; Homo sapiens, A549, read-out: Inhibitory efficacy, A549 cells, 2uM, given as fraction, Repeat 1-3): 25.5%; inhibition at 4 µM ([3]; Homo sapiens, A549, read-out: Inhibitory efficacy, A549 cells, 4uM, given as fraction, Repeat 1-3): 39%; inhibition at 8 µM ([3]; Homo sapiens, A549, read-out: Inhibitory efficacy, A549 cells, 8uM, given as fraction, Repeat 1-3): 47.8%; inhibition at 16 µM ([3]; Homo sapiens, A549, read-out: Inhibitory efficacy, A549 cells, 16uM, given as fraction, Repeat 1-3): 56%; IC50 ([4]; Homo sapiens): 0.21 ± 0.07 µM; inhibition at 1 µM ([4]; Homo sapiens, PC-9, read-out: Inhibitory efficacy, PC-9, 1uM, single repeats (Repeat 1-3), given as fraction): 60.2%; inhibition at 2 µM ([4]; Homo sapiens, PC-9, read-out: Inhibitory efficacy, PC-9, 2uM, single repeats (Repeat 1-3), given as fraction): 62.2%; inhibition at 4 µM ([4]; Homo sapiens): 73.2%; inhibition at 8 µM ([4]; Homo sapiens, PC-9, read-out: Inhibitory efficacy, PC-9, 8uM, single repeats (Repeat 1-3), given as fraction): 72.2%; inhibition at 16 µM ([4]; Homo sapiens, PC-9, read-out: Inhibitory efficacy, PC-9, 16uM, single repeats (Repeat 1-3), given as fraction): 77.6%; Inhibitory efficacy ([4]; PC-9, 1uM, 1 µM): 0.6098 and 0.6255; Inhibitory efficacy ([4]; PC-9, 2uM, 2 µM): 0.6294 and 0.6255; Inhibitory efficacy ([4]; PC-9, 4uM, 4 µM): 0.6922 and 0.7284; Inhibitory efficacy ([4]; PC-9, 8uM, 8 µM): 0.7167 and 0.7137; Inhibitory efficacy ([4]; PC-9, 16uM, 16 µM): 0.7578 and 0.7647; Inhibitory efficacy ([5]; 2uM): 0.1989 and 0.1819; Inhibitory efficacy ([5]; 4uM): 0.3103 and 0.3631; Inhibitory efficacy ([5]; 8uM): 0.4556 and 0.4424; Inhibitory efficacy ([5]; 16uM): 0.4821 and 0.5651; IC50 ([5]; read-out: IC50 (μM) H1975): 12.7 ± 2.76 µM; inhibition at 2 µM ([5]; 2uM): 20.1%; inhibition at 4 µM ([5]; 4uM): 30.1%; inhibition at 8 µM ([5]; 8uM): 42.2%; inhibition at 16 µM ([5]; 16uM): 55.9%

Q: With `COCCOc1cc2ncnc(Nc3cccc(-c4cn(Cc5ccccc5)nn4)c3)c2cc1OCCOC` [e1, [3-(1-Benzyl-1H-[1,2,3]triazol-4-yl)-phenyl]-[6,7-bis-(2-methoxy-ethoxy)-quinazolin-4-yl]-amine] as the compound, how does the melting point read?
A: 89 to 92 °C

Q: And the IC50 ([6]; IC50 (μM) EGFR, ELISA, 3 μmol/L ATP)?
A: 1.34 µM

Q: And the Inhibition ([6]; concentration 0.03 nM, one value per replicate column, 3e-05 µM)?
A: 3.106 and 6.667

Q: And the inhibition at 0.0003 µM ([6]; concentration 0.3 nM, one value per replicate column)?
A: 14.9%

Q: And the Inhibition ([6]; concentration 0.3 nM, one value per replicate column, 0.0003 µM)?
A: 12.7273

Q: And the inhibition at 0.003 µM ([6]; concentration 3 nM, one value per replicate column)?
A: 15.5%

Q: What about the Inhibition ([6]; concentration 3 nM, one value per replicate column, 0.003 µM) of the same compound?
A: 27.2727

Q: What about the inhibition at 0.03 µM ([6]; concentration 30 nM, one value per replicate column) of the same compound?
A: 28%

Q: What about the Inhibition ([6]; concentration 30 nM, one value per replicate column, 0.03 µM) of the same compound?
A: 34.5455

Q: And the inhibition at 0.3 µM ([6]; concentration 300 nM, one value per replicate column)?
A: 34.2%

Q: And the Inhibition ([6]; concentration 300 nM, one value per replicate column, 0.3 µM)?
A: 43.6364

Q: What about the inhibition at 3 µM ([6]; concentration 3000 nM, one value per replicate column) of the same compound?
A: 43.5%

Q: And the Inhibition ([6]; concentration 3000 nM, one value per replicate column, 3 µM)?
A: 45.4545

Q: What about the inhibition at 30 µM ([6]; concentration 30000 nM, one value per replicate column) of the same compound?
A: 73.9%

Q: And the Inhibition ([6]; concentration 30000 nM, one value per replicate column, 30 µM)?
A: 80.6061

Q: What about the A450 ([6]; concentration 0.0001 nM) of the same compound?
A: 0.408 and 0.407

Q: What about the A450 ([6]; concentration 0.03 nM) of the same compound?
A: 0.403 and 0.396

Q: What about the A450 ([6]; concentration 0.3 nM) of the same compound?
A: 0.384 and 0.386

Q: What about the A450 ([6]; concentration 3 nM) of the same compound?
A: 0.383 and 0.362

Q: What about the A450 ([6]; concentration 30 nM) of the same compound?
A: 0.363 and 0.35

Q: What about the A450 ([6]; concentration 300 nM) of the same compound?
A: 0.353 and 0.335

Q: And the A450 ([6]; concentration 3000 nM)?
A: 0.338 and 0.332

Q: And the A450 ([6]; concentration 30000 nM)?
A: 0.289 and 0.274

Q: And the Inhibitory efficacy [2, 8]?
A: 0.09593 and 0.09213

Q: What about the IC50 ([2]; Homo sapiens, read-out: IC50 (μM) H460, CCK-8, 48 h, average ± SD of three independent experiments) of the same compound?
A: > 100 µM

Q: What about the inhibition at 2 µM [2, 12] of the same compound?
A: 11.9%

Q: What about the IC50 ([3]; Homo sapiens, A549, 48 h, read-out: IC50 (μM) A549, CCK-8, 48 h, average ± SD of three independent experiments) of the same compound?
A: > 100 µM

Q: What about the IC50 ([4]; Homo sapiens) of the same compound?
A: > 100 µM

Q: What about the inhibition at 4 µM ([4]; Homo sapiens) of the same compound?
A: 13.4%

Q: What about the Inhibitory efficacy ([4]; PC-9, 4uM, 4 µM) of the same compound?
A: 0.07898 and 0.104

Q: What about the Inhibitory efficacy ([5]; 2uM) of the same compound?
A: 0.214 and 0.1313

Q: What about the Inhibitory efficacy ([5]; 4uM) of the same compound?
A: 0.2001 and 0.2011

Q: What about the Inhibitory efficacy ([5]; 8uM) of the same compound?
A: 0.2439 and 0.3137

Q: What about the Inhibitory efficacy ([5]; 16uM) of the same compound?
A: 0.3018 and 0.3516

Q: What about the IC50 ([5]; read-out: IC50 (μM) H1975, CCK-8, 48 h, average ± SD of three independent experiments) of the same compound?
A: > 100 µM

Q: What about the inhibition at 2 µM ([5]; 2uM) of the same compound?
A: 24.3%

Q: And the inhibition at 4 µM ([5]; 4uM)?
A: 28.4%

Q: What about the inhibition at 8 µM ([5]; 8uM) of the same compound?
A: 25.2%

Q: And the inhibition at 16 µM ([5]; 16uM)?
A: 37.9%

Q: With `COCCOc1cc2ncnc(Nc3cccc(-c4cn(Cc5cccc(OC)c5)nn4)c3)c2cc1OCCOC` [e5] as the compound, how does the melting point read?
A: 85 to 88 °C
